In brackets after ≈: the same amount, converted by molar mass. Blank lines part the entries; values can stand above or below the compound they belong to. Peptide text beside a SMILES is read from it.
How the values were obtained:
[1] = tested on: Klebsiella pneumoniae ATCC BAA-1705 (KPC); type: cell-based; conditions: ATCC BAA-1705
Description: (§1) Each peptide was formulated in PBS buffer prior to testing. Peptides of SEQ ID NO:5 and SEQ ID NO:8 were brought up in 100% DMSO with 0.002% polysorbate-80 at 1.28 mg/mL (40× the highest final test concentration of 32 mcg/mL). Final test concentration of DMSO was 2.5% in the assay at the first dilution for those two compounds.
(§2) Mueller Hinton II broth (MHB II; BD; Lot Nos. 6258541 and 7143896) was used for MIC testing of aerobic organisms. 0.002% polysorbate 80 (P80) was added to the test medium.
(§3) MIC values were determined using a broth microdilution procedure described by CLSI (1, 3). Automated liquid handlers (Multidrop 384, Labsystems, Helsinki, Finland; Biomek 2000 and Biomek FX, Beckman Coulter, Fullerton CA) were used to conduct serial dilutions and liquid transfers.
(§4) To prepare the drug mother plates, which would provide the serial peptide dilutions for the replicate daughter plates, the wells of columns 2-12 of standard 96-well microdilution plates (Costar 3795) were filled with 150 μl of the designated diluent for each row of peptide. The test articles and comparator compounds (300 μl at 40× the highest concentration to be tested) were dispensed into the appropriate wells in column 1. The Biomek 2000 was then used to make 2-fold serial dilutions in the mother plates from column 1 through column 11. The wells of Column 12 contained no drug and served as the organism growth control wells for the assay.
(§5) The daughter plates were loaded with 185 μL per well of MHB II using the Multidrop 384. The daughter plates were completed on the Biomek FX instrument which transferred 5 uL of peptide solution from each well of a mother plate to the corresponding well of each daughter plate in a single step. A standardized inoculum of each test organism was prepared per CLSI methods. The inoculum for each organism was dispensed into sterile reservoirs divided by length (Beckman Coulter), and the Biomek 2000 was used to inoculate the plates. Daughter plates were placed on the Biomek 2000 work surface in reverse orientation so that inoculation took place from low to high drug concentration. The plates were then inoculated with 10 μL of the inoculum resulting in a final cell density of approximately 5×10^5 CFU/mL, per well.
(§6) Plates were stacked 3-4 high, covered with a lid on the top plate, placed in plastic bags, and incubated at 35° C. for 16 to 20 hrs. Following incubation, the microplates were removed from the incubator and viewed from the bottom using a plate viewer. […] The MIC was read and recorded as the lowest concentration of peptide that inhibited visible growth of the organism.

[2] = tested on: Staphylococcus aureus ATCC 43300 (MRSA); type: cell-based; conditions: ATCC 43300
Description: as §1, §2, §3, §4, §5, §6

[3] = tested on: Escherichia coli ATCC 25922 (QC); type: cell-based; conditions: ATCC 25922
Description: as §1, §2, §3, §4, §5, §6

[4] = tested on: Pseudomonas aeruginosa ATCC BAA-2109 (MDR); type: cell-based; conditions: ATCC BAA-2109
Description: as §1, §2, §3, §4, §5, §6

[5] = tested on: Escherichia coli ATCC BAA-2471 (NDM-1); type: cell-based; conditions: ATCC BAA-2471
Description: as §1, §2, §3, §4, §5, §6

[6] = tested on: Acinetobacter baumannii ATCC 19606 (non-MDR); type: cell-based; conditions: ATCC 19606
Description: as §1, §2, §3, §4, §5, §6

[7] = tested on: Enterococcus faecalis ATCC 700802 (V583 VRE); type: cell-based; conditions: ATCC 700802
Description: as §1, §2, §3, §4, §5, §6

[8] = tested on: Streptococcus pyogenes ATCC 49399; type: cell-based; conditions: ATCC 49399
Description: as §1, §2, §3, §4, §5, §6

[9] = tested on: Pseudomonas aeruginosa ATCC 27853 (non-MDR; QC); type: cell-based; conditions: ATCC 27853
Description: as §1, §2, §3, §4, §5, §6

[10] = tested on: Escherichia coli ATCC 35218 (ESBL); type: cell-based; conditions: ATCC 35218
Description: as §1, §2, §3, §4, §5, §6

[11] = tested on: Enterococcus faecalis ATCC 29212 (VSE; QC); type: cell-based; conditions: ATCC 29212
Description: as §1, §2, §3, §4, §5, §6

[12] = tested on: Streptococcus pneumoniae ATCC 49619 (QC); type: cell-based; conditions: ATCC 49619
Description: as §1, §2, §3, §4, §5, §6

[13] = tested on: Staphylococcus aureus NRS382 (USA100; HA-MRSA); type: cell-based; conditions: USA100
Description: as §1, §2, §3, §4, §5, §6

[14] = tested on: Enterococcus faecium ATCC 51559 (VRE); type: cell-based; conditions: ATCC 51559
Description: as §1, §2, §3, §4, §5, §6

[15] = tested on: Acinetobacter baumannii ATCC BAA-1797 (MDR); type: cell-based; conditions: ATCC BAA-1797
Description: as §1, §2, §3, §4, §5, §6

[16] = tested on: Staphylococcus aureus ATCC 29213 (MSSA; QC); type: cell-based; conditions: ATCC 29213
Description: as §1, §2, §3, §4, §5, §6

[17] = tested on: S. aureus strain SH1000 biofilms; assay: In vitro biofilm disruption on stainless steel rods; type: cell-based, Staphylococcus aureus; conditions: S. aureus SH1000, 10×MIC, up to 24 hours, FIG. 15
Description: FIG. 15 depicts the effect of administration of SEQ ID NO:1 and cefazolin on biofilm maintenance. […] SEQ ID NO:1 eliminated mature implant biofilms on a model strain of S. aureus, SH1000.

S. aureus = assay: Periprosthetic joint infection model, implant biofilm CFU; type: in vivo; conditions: mouse, intraperitoneal; SEQ ID NO:1 0.1-10 mg/kg; compared to untreated control mice, FIG. 16
Description: Periprosthetic joint infection was modeled in a mouse by placing an intra-articular K-wire through the medullary canal of the proximal femur followed by intra-articular inoculation with S. aureus. Animals were treated systemically with an intraperitoneal delivery of cefazolin, rifampin, or the exemplary peptide of SEQ ID NO: 1. Intraperitoneal delivery was chosen due to technical difficulties associated with intravenous delivery. Implant sonication and proximal femur homogenate were used to quantify viable bacteria.

[18] = tested on: P. aeruginosa strains (PAO1 and 2 clinical isolates); assay: Determination of bacterial resistance, passage at 0.5×MIC with daily MIC; type: cell-based, Pseudomonas aeruginosa; conditions: three P. aeruginosa strains, exposure at 0.5×MIC, FIG. 20
Description: Each antibiotic was compared for their propensity to select for bacterial resistance phenotypes in vitro.

MIC [1]: >32 µg/mL
MIC [2]: >32 µg/mL
MIC [3]: >32 µg/mL
MIC [4]: >32 µg/mL
MIC [5]: 16 µg/mL (≈ 9.15 µM)
MIC [6]: >32 µg/mL
MIC [7]: >32 µg/mL
MIC [8]: 16 µg/mL (≈ 9.15 µM)
MIC [9]: >32 µg/mL
MIC [10]: 32 µg/mL (≈ 18.3 µM)
MIC [11]: >32 µg/mL
MIC [12]: >32 µg/mL
MIC [13]: >32 µg/mL
MIC [14]: 16 µg/mL (≈ 9.15 µM)
MIC [15]: >32 µg/mL
MIC [16]: >32 µg/mL
Compound: CC(C)[C@H](N)C(=O)N[C@H](C(=O)N[C@@H](CCCNC(=N)N)C(=O)N[C@H](C(=O)N[C@H](C(=O)N[C@@H](CCCNC(=N)N)C(=O)N[C@@H](CCCNC(=N)N)C(=O)N[C@H](C(=O)N[C@H](C(=O)N[C@@H](CCCNC(=N)N)C(=O)N[C@H](C(=O)N[C@H](C(=O)N[C@@H](CCCNC(=N)N)C(=O)N[C@@H](CCCNC(=N)N)C(=O)O)C(C)C)C(C)C)C(C)C)C(C)C)C(C)C)C(C)C)C(C)C [SEQ ID NO: 7] (H-VVRVVRRVVRVVRR-OH; N-terminus and C-terminus assumed)

Compound: Cc1nnc(SCC2=C(C(=O)O)N3C(=O)[C@@H](NC(=O)Cn4cnnn4)[C@H]3SC2)s1 [cefazolin]
reduction of mature biofilm on stainless steel rods [17]: did not achieve a three-log reduction
reduction of implant biofilm CFU burden (sonicate culture) (S. aureus): one log reduction in viable bacteria

Compound: LL-37 [LL37]
time to development of resistance (fold MIC >10) [18]: ≤ 9 days

Reference: patent publication US20240115654A1, “INTRAVENOUS ADMINISTRATION OF ENGINEERED ANTIMICROBIAL AMPHIPHILIC PEPTIDES” (priority 2021, published 2024)
